Measurements: patent US8987285B2, “Pharmaceutical compositions, dosage forms and new forms of the compound of formula (I), and methods of use thereof” (Portola Pharmaceuticals, Inc., priority 2010, dated 2015)

Legend:
[1] = Super-saturation measurement (CheqSol): intrinsic and kinetic solubility; type: physicochemical; conditions: for ratio super saturation: kinetic solubility divided by intrinsic solubility
Source text: Anal. Chem. 2005, 77(4), 983-990; 2—Box, K J. Völgyi, G. Baka, E. Stuart, M. Takács-Novák, K. Corner, J E A. Equilibrium vs. kinetic measurements of aqueous solubility, and the ability of compounds to supersaturate in solution—a validation study. J. Pharm. Sci. 2006, 95, 1298-1307; 3—Sköld, C. Winiwarter, S. Johan Wernevik, J. Bergström, F. Engström, L. Allen, R. Box, K. Corner, J. Mole, J. Hallberg, A. Lennernäs, H. Lundstedt, T. Ungell, A-L. Karlén, A. Presentation of a Structurally Diverse and Commercially Available Drug Data Set for Correlation and Benchmarking Studies. J. Med. Chem. 2006, 49(23), 6660-6671;
. Med. Chem.; 2007, 50 (5), 979-983; 5—Llinás, A. Box, K J. Burley, J C. Glen, R C. Goodman, J M. J. A new method for the reproducible generation of polymorphs: two forms of Sulindac with very different solubilities. […] 6—Box K et al, Using Measured pKa, Log P and Solubility to Investigate Supersaturation and Predict BCS Class, Current Drug Metabolism, 2008, 9, 869-878]
1—kinetic solubility is the concentration of a compound in solution at the time when an induced precipitate first appears
2—equilibrium solubility (also called thermodynamic solubility) is the concentration of compound in a saturated solution when excess solid is present, and solution and solid are at equilibrium
3—intrinsic solubility [Hörter, D.; Dressman, J. B. Adv. Drug Deliv. Rev., 1997, 25, 3-14] is the equilibrium solubility of the free acid or base form of an ionisable compound at a pH where it is fully un-ionized
The super-saturation ratio is calculated as the ratio of kinetic solubility divided by the Intrinsic Solubility.

[2] = Aqueous solubility of the free acid versus pH; type: physicochemical; conditions: aqueous buffer
Source text: […]. […] In certain instances, the active agent is initially present at least partly in an ionized form. In certain other instances, the active agent is initially present in an un-ionized form.

## CNc1cc2[nH]c(=O)n(-c3ccc(NC(=O)NS(=O)(=O)c4ccc(Cl)s4)cc3)c(=O)c2cc1F [compound of formula (II), elinogrel]
[1]; kinetic from dmso stock, CheqSol
  solubility kinetic: 4.17 µg/mL
[1]; listed as Free acid
  ratio super saturation: 179
[1]; listed as free acid of formula (II)
  ratio super saturation: 178
[1]; thermodynamic from solid, CheqSol
  solubility: 0.0234 µg/mL
[2]; pH 1.0-7.4, read-out: aqueous solubility of the free acid form
  solubility: < 100 µg/mL
[2]; pH 8 or above, read-out: aqueous solubility
  solubility: ≥ 1000 µg/mL
